Data reported in patent publication US20240018123A1, “COMPOUND FOR INHIBITING OR DISINTEGRATING ANDROGEN RECEPTOR, AND PHARMACEUTICAL USE THEREOF” (KOREA RESEARCH INSTITUTE OF CHEMICAL TECHNOLOGY, priority 2020, published 2024).

Molecular target: T1, Androgen receptor (AR) (Homo sapiens, UniProt P10275, T878A)
T1 construct: 5.5×10^5 LNCap cells were injected into each well of a 6-well plate; endogenous in cells; host or cells: LNCaP
T1 sequence (P10275 1-920 T878A): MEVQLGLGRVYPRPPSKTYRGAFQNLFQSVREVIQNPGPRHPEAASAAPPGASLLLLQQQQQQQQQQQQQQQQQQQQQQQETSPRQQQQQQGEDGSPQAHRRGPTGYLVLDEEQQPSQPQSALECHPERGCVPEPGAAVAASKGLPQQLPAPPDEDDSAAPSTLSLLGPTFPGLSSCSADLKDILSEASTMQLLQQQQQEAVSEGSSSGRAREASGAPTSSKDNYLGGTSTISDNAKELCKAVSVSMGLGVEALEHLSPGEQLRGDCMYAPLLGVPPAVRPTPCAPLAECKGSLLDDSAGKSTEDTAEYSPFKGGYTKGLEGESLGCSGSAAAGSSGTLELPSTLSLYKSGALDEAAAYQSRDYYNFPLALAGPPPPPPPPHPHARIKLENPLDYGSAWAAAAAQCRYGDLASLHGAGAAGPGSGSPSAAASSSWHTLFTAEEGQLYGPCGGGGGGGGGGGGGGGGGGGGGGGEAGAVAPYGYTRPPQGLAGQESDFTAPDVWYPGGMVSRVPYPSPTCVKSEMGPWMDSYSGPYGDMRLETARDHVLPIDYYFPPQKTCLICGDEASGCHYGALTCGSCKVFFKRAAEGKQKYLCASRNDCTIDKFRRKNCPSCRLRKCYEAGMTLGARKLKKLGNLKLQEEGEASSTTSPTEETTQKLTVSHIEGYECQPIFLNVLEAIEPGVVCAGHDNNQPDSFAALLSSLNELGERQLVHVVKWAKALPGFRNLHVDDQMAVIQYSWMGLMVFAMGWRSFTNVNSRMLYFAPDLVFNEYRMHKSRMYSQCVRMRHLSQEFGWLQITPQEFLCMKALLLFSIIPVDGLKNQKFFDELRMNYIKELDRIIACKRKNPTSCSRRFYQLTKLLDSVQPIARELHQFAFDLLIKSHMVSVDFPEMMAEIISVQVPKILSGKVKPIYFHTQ
Assay: Assessment of AR proteolytic activity (Western blotting of LNCap cell lysates)
Format: cell-based
Conditions: 24 hours of treatment, Western blotting quantified with Image J
Summary of the method: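 AR degradation read by Western blot densitometry on RIPA lysates (pH 7.5, protease inhibitor cocktail). Lysates came from LNCap cells, 5.5×10^5 per well, exposed to compound for 24 hours.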

Question: With `CC1(C)[C@H](NC(=O)c2ccc(C#CC3CCN(CC4CCN(c5ccc6c(=O)n(C7CCC(=O)NC7=O)nnc6c5)CC4)CC3)nc2)C(C)(C)[C@H]1Oc1ccc(C#N)c(Cl)c1` (stereo partly drawn) [Example 195, N-((1r,3r)-3-(3-chloro-4-cyanophenoxy)-2,2,4,4-tetramethylcyclobutyl)-6-((1-((1-(3-(2,6-dioxopiperidin-3-yl)-4-oxo-3,4-dihydrobenzo[d][1,2,3]triazin-7-yl)piperidin-4-yl)methyl)piperidin-4-yl)ethynyl)nicotinamide] as the compound, how does the “Degradation (1 μM treated in LNCaP, % AR remaining)” value read?
Answer: 3%

Question: Which “Degradation (1 μM treated in LNCaP, % AR remaining)” value does the source give for `CC1(C)C(NC(=O)c2ccc(C#CC3CCN(CC4CCN(c5ccc6nnn(C7CCC(=O)NC7=O)c(=O)c6c5)CC4)CC3)nc2)C(C)(C)C1Oc1ccc(C#N)c(Cl)c1` (stereo not drawn) [Example 196, N-((1r,3r)-3-(3-chloro-4-cyanophenoxy)-2,2,4,4-tetramethylcyclobutyl)-6-((1-((1-(3-(2,6-dioxopiperidin-3-yl)-4-oxo-3,4-dihydrobenzo[d][1,2,3]triazin-6-yl)piperidin-4-yl)methyl)piperidin-4-yl)ethynyl)nicotinamide] here?
Answer: 4%

Question: `CC1(C)C(NC(=O)c2ccc(N3CCC(CCN4CCN(c5ccc6c(=O)n(C7CCC(=O)NC7=O)nnc6c5)CC4)CC3)nc2)C(C)(C)C1Oc1ccc(C#N)c(Cl)c1` (stereo not drawn) [Example 197, N-((1r,3r)-3-(3-chloro-4-cyanophenoxy)-2,2,4,4-tetramethylcyclobutyl)-6-(4-(2-(4-(3-(2,6-dioxopiperidin-3-yl)-4-oxo-3,4-dihydrobenzo[d][1,2,3]triazin-7-yl)piperazin-1-yl)ethyl)piperidin-1-yl)nicotinamide] was tested. Which “Degradation (1 μM treated in LNCaP, % AR remaining)” value did it give?
Answer: 16%

Question: How did the “Degradation (1 μM treated in LNCaP, % AR remaining)” value turn out when `CC1(C)[C@H](NC(=O)c2ccc(N3CCC(CCN4CCN(c5ccc6nnn(C7CCC(=O)NC7=O)c(=O)c6c5)CC4)CC3)nc2)C(C)(C)[C@H]1Oc1ccc(C#N)c(Cl)c1` (stereo partly drawn) [Example 198, N-((1r,3r)-3-(3-chloro-4-cyanophenoxy)-2,2,4,4-tetramethylcyclobutyl)-6-(4-(2-(4-(3-(2,6-dioxopiperidin-3-yl)-4-oxo-3,4-dihydrobenzo[d][1,2,3]triazin-6-yl)piperazin-1-yl)ethyl)piperidin-1-yl)nicotinamide] was run?
Answer: 10%

Question: How did the “Degradation (1 μM treated in LNCaP, % AR remaining)” value turn out when “N-((1r,3r)-3-(3-chloro-4-cyanophenoxy)-2,2,4,4-tetramethylcyclobutyl)-4-(4-(1-(3-(2,6-dioxopiperidin-3-yl)-4-oxo-3,4-dihydrobenzo[d][1,2,3]triazin-6-yl)azetidine-3-carbonyl)piperazin-1-yl)benzamide [Example 44]” was run?
Answer: 3.7%

Tested on: VCaP cells
Assay: Cytotoxicity assessment (Cell-titer-glo cell viability), VCaP
Conditions: read-out: VCaP (CC50); VCaP cells, 6 days of treatment, Cell-titer-glo, vs DMSO
Description: In order to evaluate the androgen receptor (AR) cytotoxicity of the compounds according to the present invention, the following experiment was conducted. Specifically, 1.5×10^3 (LNCaP) or 4×10^3 (VCaP, 22RV1), respectively, of LNCaP, VCaP, and 22RV1 cells were injected into each well of a 96-well plate. The next day, each well was treated with the compound at a final concentration of 3 nM, 10 nM, 30 nM, 100 nM, 300 nM, 1 μM, 3 μM, and 10 μM. […] After 6 days of treatment, Cell-titer-glo (promega) was treated and reacted for 10 minutes, and cell viability was measured with a multimode plate reader (PerkinElmer, Inc.), and the change was quantified compared to when DMSO was treated.

Question: With `CC1(C)C(NC(=O)c2ccc(N3CCN(CC4CCN(CCNC(=O)CNc5ccc6nnn(C7CCC(=O)NC7=O)c(=O)c6c5)CC4)CC3)cc2)C(C)(C)C1Oc1ccc(C#N)c(Cl)c1` (stereo not drawn) [Example 59, N-((1r,3r)-3-(3-chloro-4-cyanophenoxy)-2,2,4,4-tetramethylcyclobutyl)-4-(4-((1-(2-(2-((3-(2,6-dioxopiperidin-3-yl)-4-oxo-3,4-dihydrobenzo[d][1,2,3]triazin-6-yl)amino)acetamido)ethyl)piperidin-4-yl)methyl)piperazin-1-yl)benzamide] as the compound, how does the CC50 read?
Answer: ~1000 nM

Question: How did the CC50 turn out when `CC1(C)[C@H](NC(=O)c2ccc(N3CCN(CC4CCN(CCNC(=O)C5CN(c6ccc7nnn(C8CCC(=O)NC8=O)c(=O)c7c6)C5)CC4)CC3)cc2)C(C)(C)[C@H]1Oc1ccc(C#N)c(Cl)c1` (stereo partly drawn) [Example 69, N-(2-(4-((4-(4-(((1r,3r)-3-(3-chloro-4-cyanophenoxy)-2,2,4,4-tetramethylcyclobutyl)carbamoyl)phenyl)piperazin-1-yl)methyl)piperidin-1-yl)ethyl)-1-(3-(2,6-dioxopiperidin-3-yl)-4-oxo-3,4-dihydrobenzo[d][1,2,3]triazin-6-yl)azetidine-3-carboxamide] was run?
Answer: 345 nM

Question: How did the CC50 turn out when `CC1(C)C(NC(=O)c2ccc(C#CCC3CCN(C4CCN(c5ccc6nnn(C7CCC(=O)NC7=O)c(=O)c6c5)CC4)CC3)cc2)C(C)(C)C1Oc1ccc(C#N)c(Cl)c1` (stereo not drawn) [Example 89, N-((1r,3r)-3-(3-chloro-4-cyanophenoxy)-2,2,4,4-tetramethylcyclobutyl)-4-(3-(1 ? (3-(2,6-dioxopiperidin-3-yl)-4-oxo-3,4-dihydrobenzo[d][1,2,3]triazin-6-yl)-[1,4 ? bipiperdin]-4-yl)prop-1-yn-1-yl)benzamide] was run?
Answer: 112 nM

Question: How did the CC50 turn out when `CC1(C)[C@H](NC(=O)c2ccc(N3CCN(Cc4cn(-c5ccc6nnn(C7CCC(=O)NC7=O)c(=O)c6c5)nn4)CC3)cc2)C(C)(C)[C@H]1Oc1ccc(C#N)c(Cl)c1` (stereo partly drawn) [Example 91, N-((1r,3r)-3-(3-chloro-4-cyanophenoxy)-2,2,4,4-tetramethylcyclobutyl)-4-(4-((1-(3-(2,6-dioxopiperidin-3-yl)-4-oxo-3,4-dihydrobenzo[d][1,2,3]triazin-6-yl)-1H-1,2,3-triazol-4-yl)methyl)piperazin-1-yl)benzamide] was run?
Answer: 262 nM

Question: With `CC1(C)[C@H](NC(=O)c2ccc(CCN3CC4CN(c5ccc6nnn(C7CCC(=O)NC7=O)c(=O)c6c5)CC4C3)cc2)C(C)(C)[C@H]1Oc1ccc(C#N)c(Cl)c1` (stereo partly drawn) [Example 92, N-((1r,3r)-3-(3-chloro-4-cyanophenoxy)-2,2,4,4-tetramethylcyclobutyl)-4-(2-(5-(3-(2,6-dioxopiperidin-3-yl)-4-oxo-3,4-dihydrobenzo[d][1,2,3]triazin-6-yl)hexahydropyrrolo[3,4-c]pyrrol-2(1H)-yl)ethyl)benzamide] as the compound, how does the CC50 read?
Answer: > 10000 nM

Question: `CC1(C)C(NC(=O)c2ccc(C#CC3CCN(C(=O)C4CN(c5ccc6nnn(C7CCC(=O)NC7=O)c(=O)c6c5)C4)CC3)cc2)C(C)(C)C1Oc1ccc(C#N)c(Cl)c1` (stereo not drawn) [Example 95, N-((1r,3r)-3-(3-chloro-4-cyanophenoxy)-2,2,4,4-tetramethylcyclobutyl)-4-((1-(1-(3-(2,6-dioxopiperidin-3-yl)-4-oxo-3,4-dihydrobenzo[d][1,2,3]triazin-6-yl)azetidine-3-carbonyl)piperidin-4-yl)ethynyl)benzamide] was tested. Which CC50 did it give?
Answer: 4.5 nM

Question: Which CC50 does the source give for `CC1(C)C(NC(=O)c2ccc(C#CC3CCN(CC4CCN(C(=O)C5CN(c6ccc7nnn(C8CCC(=O)NC8=O)c(=O)c7c6)C5)CC4)CC3)cc2)C(C)(C)C1Oc1ccc(C#N)c(Cl)c1` (stereo not drawn) [Example 96, N-((1r,3r)-3-(3-chloro-4-cyanophenoxy)-2,2,4,4-tetramethylcyclobutyl)-4-((1-((1-(1-(3-(2,6-dioxopiperidin-3-yl)-4-oxo-3,4-dihydrobenzo[d][1,2,3]triazin-6-yl)azetidine-3-carbonyl)piperidin-4-yl)methyl)piperidin-4-yl)ethynyl)benzamide] here?
Answer: 8.03 nM

Question: For `CC1(C)C(NC(=O)c2ccc(C#CC3CCN(CC4CCN(C(=O)CNc5ccc6nnn(C7CCC(=O)NC7=O)c(=O)c6c5)CC4)CC3)cc2)C(C)(C)C1Oc1ccc(C#N)c(Cl)c1` (stereo not drawn) [Example 98, N-((1r,3r)-3-(3-chloro-4-cyanophenoxy)-2,2,4,4-tetramethylcyclobutyl)-4-((1-((1-((3-(2,6-dioxopiperidin-3-yl)-4-oxo-3,4-dihydrobenzo[d][1,2,3]triazin-6-yl)glycyl)piperidin-4-yl)methyl)piperidin-4-yl)ethynyl)benzamide], which CC50 is on record?
Answer: 6.72 nM

Question: `CC1(C)[C@H](NC(=O)c2cnc(N3CCN(CC4CCN(c5ccc6nnn(C7CCC(=O)NC7=O)c(=O)c6c5)CC4)CC3)nc2)C(C)(C)[C@H]1Oc1ccc(C#N)c(Cl)c1` (stereo partly drawn) [Example 100, N-((1r,3r)-3-(3-chloro-4-cyanophenoxy)-2,2,4,4-tetramethylcyclobutyl)-2-(4-((1-(3-(2,6-dioxopiperidin-3-yl)-4-oxo-3,4-dihydrobenzo[d][1,2,3]triazin-6-yl)piperidin-4-yl)methyl)piperazin-1-yl)pyrimidine-5-carboxamide] was tested. Which CC50 did it give?
Answer: 2 nM

Question: Which CC50 does the source give for `CC1(C)C(NC(=O)c2ccc(-n3cc(CC4CCN(C(=O)C5CCN(c6ccc7nnn(C8CCC(=O)NC8=O)c(=O)c7c6)CC5)CC4)nn3)cc2)C(C)(C)C1Oc1ccc(C#N)c(Cl)c1` (stereo not drawn) [Example 104, N-((1r,3r)-3-(3-chloro-4-cyanophenoxy)-2,2,4,4-tetramethylcyclobutyl)-4-(4-((1-(1-(3-(2,6-dioxopiperidin-3-yl)-4-oxo-3,4-dihydrobenzo[d][1,2,3]triazin-6-yl)piperidine-4-carbonyl)piperidin-4-yl)methyl)-1H-1,2,3-triazol-1-yl)benzamide] here?
Answer: 16.9 nM
